Measured values from patent US8741836B2, “Polypeptides” (Novo Nordisk A/S, priority 2011, dated 2014).
Starred links: 1 amine or outer side, 2 acyl side, 3 side chain; linkers in the order of their positions; H or OH if unused. Positions of bridges follow the written chain, without caps; N, C: chain ends. Residues, ends and D or L forms follow the SMILES beside them. *: point of attachment. C20 diacid = O=C(O)CCCCCCCCCCCCCCCCCCC(=O)*; γGlu = O=C(O)[C@H](CCC(=O)[*:2])N[*:1]

Assay: Assay (III) ThT fibrillation assay for physical stability
Type: physicochemical
Details: for ThT pH 4.0 lag time: pH 4.0, ThT fibrillation assay
Excerpt: Assay (III)—ThT Fibrillation Assays for the Assessment of Physical Stability of Protein formulations Low physical stability of a polypeptide may lead to amyloid fibril formation, which is observed as well-ordered, thread-like macromolecular structures in the sample eventually resulting in gel formation. This has traditionally been measured by visual inspection of the sample. However, that kind of measurement is very subjective and depending on the observer. Therefore, the application of a small molecule indicator probe is much more advantageous. Thioflavin T (ThT) is such a probe and has a distinct fluorescence signature when binding to fibrils [Naiki et al. (1989) Anal. Biochem. 177, 244-249; LeVine (1999) Methods. Enzymol. […], 274-284]. The time course for fibril formation can be described by a sigmoidal curve with the following expression [Nielsen et al. (2001) Biochemistry 40, 6036-6046]: [formula] Here, F is the ThT fluorescence at the time t. The constant t0 is the time needed to reach 50% of maximum fluorescence. […] Few of those intermediates nucleate to form a template onto which further intermediates may assembly and the fibrillation proceeds. The lag-time corresponds to the interval in which the critical mass of nucleus is built up and the apparent rate constant is the rate with which the fibril itself is formed. Sample Preparation Samples were prepared freshly before each assay. Each sample composition is described in each example. The pH of the sample was adjusted to the desired value using appropriate amounts of concentrated NaOH and HClO4 or HCl. Thioflavin T was added to the samples from a stock solution in H2O to a final concentration of 1 μM. Sample aliquots of 200 μl were placed in a 96 well microtiter plate (Packard OptiPlate™-96, white polystyrene). Usually, four or eight replica of each sample (corresponding to one test condition) were placed in one column of wells. The plate was sealed with Scotch Pad (Qiagen). Incubation and Fluorescence Measurement Incubation at given temperature, shaking and measurement of the ThT fluorescence emission were done in a Fluoroskan Ascent FL fluorescence platereader or Varioskan platereader (Thermo Labsystems). The temperature was adjusted to 37° C. The orbital shaking was adjusted to 960 rpm with an amplitude of 1 mm in all the presented data. Fluorescence measurement was done using excitation through a 444 nm filter and measurement of emission through a 485 nm filter. Each run was initiated by incubating the plate at the assay temperature for 10 min. The plate was measured every 20 minutes for a desired period of time. Between each measurement, the plate was shaken and heated as described. Data Handling The measurement points were saved in Microsoft Excel format for further processing and curve drawing and fitting was performed using GraphPad Prism. The background emission from ThT in the absence of fibrils was negligible. The data points are typically a mean of four or eight samples and shown with standard deviation error bars. Only data obtained in the same experiment (i.e. samples on the same plate) are presented in the same graph ensuring a relative measure of fibrillation between experiments. The data set may be fitted to Eq. (1). However, since full sigmodial curves in this case are not always achieved during the measurement time, the degree of fibrillation is expressed as ThT fluorescence tabulated as the mean of the samples and shown with the standard deviation at various time points. Measurement of Initial and Final Concentrations The polypeptide concentration in each of the tested formulations were measured both before application in the ThT fibrillation assay (“Initial”) and after completion of the ThT fibrillation (“After ThT assay”). Concentrations were determined by reverse HPLC methods using a pramlintide standard as a reference. Before measurement after completion 150 μl was collected from each of the replica and transferred to an Eppendorf tube. […]

ThT pH 4.0 lag time (physical stability in fibrillogenesis assay) [h]	ThT pH 4.0 lag time [h]	Compound
>45	>45	CC[C@H](C)[C@H](NC(=O)[C@@H]1CCCN1C(=O)CNC(=O)[C@H](Cc1ccccc1)NC(=O)[C@H](CC(N)=O)NC(=O)[C@H](CCC(N)=O)NC(=O)[C@H](CO)NC(=O)[C@H](CO)NC(=O)[C@H](Cc1c[nH]cn1)NC(=O)[C@H](CCCNC(=N)N)NC(=O)[C@H](CC(C)C)NC(=O)[C@H](Cc1ccccc1)NC(=O)[C@H](CCC(=O)O)NC(=O)[C@H](C)NC(=O)[C@H](CC(C)C)NC(=O)[C@H](CCCNC(=N)N)NC(=O)[C@H](CCC(N)=O)NC(=O)[C@@H](NC(=O)[C@H](C)NC(=O)[C@@H]1CSSC[C@H](NC(=O)[C@H](CCC(=O)O)NC(=O)[C@H](CCCNC(=N)N)NC(=O)[C@H](CCC(=O)O)NC(=O)CC[C@H](NC(=O)CCCCCCCCCCCCCCCCCCC(=O)O)C(=O)O)C(=O)N[C@@H](CC(N)=O)C(=O)N[C@@H]([C@@H](C)O)C(=O)N[C@@H](C)C(=O)N[C@@H]([C@@H](C)O)C(=O)N1)[C@@H](C)O)C(=O)N[C@@H](CC(C)C)C(=O)N1CCC[C@H]1C(=O)N1CCC[C@H]1C(=O)N[C@H](C(=O)N[C@@H](CC(N)=O)C(=O)N[C@H](C(=O)NCC(=O)N[C@@H](CO)C(=O)N[C@@H](CC(N)=O)C(=O)N[C@H](C(=O)N1CCC[C@H]1C(N)=O)[C@@H](C)O)C(C)C)[C@@H](C)O [Example 161, N-alpha-[(S)-4-Carboxy-4-(19-carboxynonadecanoylamino)butyryl]-Glu-Arg-[Glu1,Glu14,Arg17,Gln21,Pro37]-pramlintide] ({C20 diacid-γGlu}-ERECNTATCATQRLAEFLRHSSQNFGPILPPTNVGSNTP-NH2; disulfide 4-9 (inferred))
	>45	CC[C@H](C)[C@H](NC(=O)[C@@H]1CCCN1C(=O)CNC(=O)[C@H](Cc1ccccc1)NC(=O)[C@H](CC(N)=O)NC(=O)[C@H](CC(N)=O)NC(=O)[C@H](CO)NC(=O)[C@H](CO)NC(=O)[C@H](Cc1c[nH]cn1)NC(=O)[C@H](Cc1c[nH]cn1)NC(=O)[C@H](CC(C)C)NC(=O)[C@H](Cc1ccccc1)NC(=O)[C@H](CCC(=O)O)NC(=O)[C@H](C)NC(=O)[C@H](CC(C)C)NC(=O)[C@H](CCCNC(=N)N)NC(=O)[C@H](CCC(N)=O)NC(=O)[C@@H](NC(=O)[C@H](C)NC(=O)[C@@H]1CSSC[C@H](NC(=O)[C@H](CCCCN)NC(=O)CC[C@H](NC(=O)CCCCCCCCCCCCCCCCCCC(=O)O)C(=O)O)C(=O)N[C@@H](CC(N)=O)C(=O)N[C@@H]([C@@H](C)O)C(=O)N[C@@H](C)C(=O)N[C@@H]([C@@H](C)O)C(=O)N1)[C@@H](C)O)C(=O)N[C@@H](CC(C)C)C(=O)N1CCC[C@H]1C(=O)N1CCC[C@H]1C(=O)N[C@H](C(=O)N[C@@H](CC(N)=O)C(=O)N[C@H](C(=O)NCC(=O)N[C@@H](Cc1c[nH]cn1)C(=O)N[C@@H](CC(N)=O)C(=O)N[C@H](C(=O)N[C@@H](Cc1ccc(O)cc1)C(N)=O)[C@@H](C)O)C(C)C)[C@@H](C)O [Example 115, N-alpha-[(S)-4-Carboxy-4-(19-carboxynonadecanoylamino)butyryl]-[Glu14,His17,His34]-pramlintide] ({C20 diacid-γGlu}-KCNTATCATQRLAEFLHHSSNNFGPILPPTNVGHNTY-NH2; disulfide 2-7 (inferred))

Second part, the compound before the results:

Compound	ThT pH 4.0 lag time (physical stability in fibrillogenesis assay) [h]	ThT pH 4.0 lag time [h]
CC[C@H](C)[C@H](NC(=O)[C@@H]1CCCN1C(=O)CNC(=O)[C@H](Cc1ccccc1)NC(=O)[C@H](CC(N)=O)NC(=O)[C@H](CC(N)=O)NC(=O)[C@H](CO)NC(=O)[C@H](CO)NC(=O)[C@H](Cc1c[nH]cn1)NC(=O)[C@H](Cc1c[nH]cn1)NC(=O)[C@H](CC(C)C)NC(=O)[C@H](Cc1ccccc1)NC(=O)[C@H](CCC(=O)O)NC(=O)[C@H](C)NC(=O)[C@H](CC(C)C)NC(=O)[C@H](CCCNC(=N)N)NC(=O)[C@H](CCC(N)=O)NC(=O)[C@@H](NC(=O)[C@H](C)NC(=O)[C@@H]1CSSC[C@H](NC(=O)[C@H](Cc2c[nH]cn2)NC(=O)CC[C@H](NC(=O)CCCCCCCCCCCCCCCCCCC(=O)O)C(=O)O)C(=O)N[C@@H](CC(N)=O)C(=O)N[C@@H]([C@@H](C)O)C(=O)N[C@@H](C)C(=O)N[C@@H]([C@@H](C)O)C(=O)N1)[C@@H](C)O)C(=O)N[C@@H](CC(C)C)C(=O)N1CCC[C@H]1C(=O)N1CCC[C@H]1C(=O)N[C@H](C(=O)N[C@@H](CC(N)=O)C(=O)N[C@H](C(=O)NCC(=O)N[C@@H](CO)C(=O)N[C@@H](Cc1c[nH]cn1)C(=O)N[C@H](C(=O)N[C@@H](Cc1ccc(O)cc1)C(N)=O)[C@@H](C)O)C(C)C)[C@@H](C)O [Example 76, N-alpha-[(S)-4-Carboxy-4-(19-carboxynonadecanoylamino)butyryl]-[His1,Glu14,His17,His35]-pramlintide] ({C20 diacid-γGlu}-HCNTATCATQRLAEFLHHSSNNFGPILPPTNVGSHTY-NH2; disulfide 2-7)		>45
CC[C@H](C)[C@H](NC(=O)[C@@H]1CCCN1C(=O)CNC(=O)[C@H](Cc1ccccc1)NC(=O)[C@H](CC(N)=O)NC(=O)[C@H](CC(N)=O)NC(=O)[C@H](CO)NC(=O)[C@H](CO)NC(=O)[C@H](Cc1c[nH]cn1)NC(=O)[C@H](Cc1c[nH]cn1)NC(=O)[C@H](CC(C)C)NC(=O)[C@H](Cc1ccccc1)NC(=O)[C@H](CCC(=O)O)NC(=O)[C@H](C)NC(=O)[C@H](CC(C)C)NC(=O)[C@H](CCCNC(=N)N)NC(=O)[C@H](CCC(N)=O)NC(=O)[C@@H](NC(=O)[C@H](C)NC(=O)[C@@H]1CSSC[C@H](NC(=O)[C@H](CCCCN)NC(=O)[C@H](Cc2c[nH]cn2)NC(=O)[C@H](Cc2c[nH]cn2)NC(=O)CC[C@H](NC(=O)CCCCCCCCCCCCCCCCCCC(=O)O)C(=O)O)C(=O)N[C@@H](CC(N)=O)C(=O)N[C@@H]([C@@H](C)O)C(=O)N[C@@H](C)C(=O)N[C@@H]([C@@H](C)O)C(=O)N1)[C@@H](C)O)C(=O)N[C@@H](CC(C)C)C(=O)N1CCC[C@H]1C(=O)N1CCC[C@H]1C(=O)N[C@H](C(=O)N[C@@H](CC(N)=O)C(=O)N[C@H](C(=O)NCC(=O)N[C@@H](CO)C(=O)N[C@@H](Cc1c[nH]cn1)C(=O)N[C@H](C(=O)N[C@@H](Cc1ccc(O)cc1)C(N)=O)[C@@H](C)O)C(C)C)[C@@H](C)O [Example 67, N-alpha-[(S)-4-Carboxy-4-(19-carboxynonadecanoylamino)butyryl]-His-His-[Glu14,His17,His35]-pramlintide] ({C20 diacid-γGlu}-HHKCNTATCATQRLAEFLHHSSNNFGPILPPTNVGSHTY-NH2; disulfide 4-9 (inferred))		>45
CC[C@H](C)[C@H](NC(=O)[C@@H]1CCCN1C(=O)CNC(=O)[C@H](Cc1ccccc1)NC(=O)[C@H](CC(N)=O)NC(=O)[C@H](CCC(N)=O)NC(=O)[C@H](CO)NC(=O)[C@H](CO)NC(=O)[C@H](Cc1c[nH]cn1)NC(=O)[C@H](CCCNC(=N)N)NC(=O)[C@H](CC(C)C)NC(=O)[C@H](Cc1ccccc1)NC(=O)[C@H](CCC(=O)O)NC(=O)[C@H](C)NC(=O)[C@H](CC(C)C)NC(=O)[C@H](CCCNC(=N)N)NC(=O)[C@H](CCC(N)=O)NC(=O)[C@@H](NC(=O)[C@H](C)NC(=O)[C@@H]1CSSC[C@H](NC(=O)[C@H](CCC(=O)O)NC(=O)[C@H](CCCNC(=N)N)NC(=O)[C@H](CCC(=O)O)NC(=O)CC[C@H](NC(=O)CCCCCCCCCCCCCCCCCCC(=O)O)C(=O)O)C(=O)N[C@@H](CC(N)=O)C(=O)N[C@@H]([C@@H](C)O)C(=O)N[C@@H](C)C(=O)N[C@@H]([C@@H](C)O)C(=O)N1)[C@@H](C)O)C(=O)N[C@@H](CC(C)C)C(=O)N1CCC[C@H]1C(=O)N1CCC[C@H]1C(=O)N[C@H](C(=O)N[C@@H](CC(N)=O)C(=O)N[C@H](C(=O)NCC(=O)N[C@@H](CO)C(=O)N[C@@H](CCC(N)=O)C(=O)N[C@H](C(=O)N1CCC[C@H]1C(N)=O)[C@@H](C)O)C(C)C)[C@@H](C)O [Example 162, N-alpha-[(S)-4-Carboxy-4-(19-carboxynonadecanoylamino)butyryl]-Glu-Arg-[Glu1,Glu14,Arg17,Gln21,Gln35,Pro37]-pramlintide] ({C20 diacid-γGlu}-ERECNTATCATQRLAEFLRHSSQNFGPILPPTNVGSQTP-NH2; disulfide 4-9 (inferred); C-terminus assumed)	>45	>45
